System: humanized PXR-CAR-CYP3A4/3A7 mice, liver
Experiment: UHPSFC/MS liver lipidomics (HFD study)
Type: in vivo, mouse
Experimental: Solvents, additives, lipid class internal standards, liver sample preparation, and UHPSFC/MS measurement are described in detail in Supplementary, Chapter 19. Lipid separation using UHPSFC (Acquity UPC^2 instrument from Waters; Milford, MA, USA) was performed on column Viridis BEH (100 × 3 mm, 1.7 µm) with the following conditions: the column temperature 60 °C, the flow rate 1.9 mL/min, and the injection volume 1 µL. The following linear gradient was performed using scCO2 and methanol (30 mM ammonium acetate + 1% of water) used as a modifier: 0 min – 1% modifier, 1.5 min – 16% modifier, 4 min – 51% modifier, 7 min – 51% modifier, 7.51 min – 1% modifier, and the equilibration with the total run time of 8 min. The automatic back-pressure regulator (ABPR) was set to 1800 psi and the autosampler temperature to 4 °C. Methanol with 30 mM ammonium acetate and 1% of water was used as the make-up solvent with a flow rate of 0.25 mL/min. The SFC was connected with the hybrid quadrupole - time of flight (QTOF) mass spectrometer Synapt G2-Si (Waters; Milford, MA, USA) with following conditions: sensitivity mode applying positive ESI mode, the mass range of m/z 150–1200, the capillary voltage of 3 kV, the sampling cone of 20 V, the source offset of 90 V, the source temperature of 150 °C, the desolvation temperature of 500 °C, the cone gas flow of 50 L/h, the desolvation gas flow of 1000 L/h, and the nebulizer gas flow of 4 bar. Mass spectra were acquired in the continuum mode with a scan time of 0.5 s and the peptide leucine enkephalin as the lock mass.
All UHPSFC/MS-QTOF spectra were acquired using MassLynx and processed as follows: noise reduction using the Compression tool followed by the lock mass correction and the conversion from continuum to centroid mode using the MassLynx tool (Accurate mass measure). […] Data were further analyzed using lipidr package. PCA and log2 fold change values were calculated using log2 transformed and Pareto scaled data. […]

Question: With `NC(=O)c1cc(Cn2cc(-c3c(-c4ccc(Cl)cc4)nc4cc(F)ccn34)nn2)ccc1Cl` [MI-883, 2-chloro-5-((4-(2-(4-chlorophenyl)-7-fluoroimidazo[1,2-a]pyridin-3-yl)-1H-1,2,3-triazol-1-yl)methyl)benzamide] as the compound, how does the “cholesteryl esters (CE) in livers, UHPSFC/MS lipidomics” value read?
Answer: not significantly altered

Question: And the “total and some individual lysophosphatidylcholine (LPC) levels in liver” value?
Answer: statistically significant decrease

Question: What about the “liver triglycerides with long and highly unsaturated fatty acids (TG 60:12, TG 60:13)” value (male mice) of the same compound?
Answer: significant increase

From publication PMC11802874, “The hypolipidemic effect of MI-883, the combined CAR agonist/ PXR antagonist, in diet-induced hypercholesterolemia model” (Nature Communications, 2025)
